Measurements from PubChem BioAssay (NCI).
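The compound was tested at five concentrations on cells cultured in 96-well plates, with a 48-hour exposure period. The concentration for full growth arrest is given as TGI.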

Tests used:
Assay in all cases: DTP human tumour cell line panel, 48 h
UO-31 renal = system: UO-31 renal
HL-60(TB) leukemia = system: HL-60(TB) leukemia
HT29 colon = system: HT29 colon
SK-MEL-5 melanoma = system: SK-MEL-5 melanoma
SK-OV-3 ovarian = system: SK-OV-3 ovarian
DMS 273 small cell lung = system: DMS 273 small cell lung
OVCAR-8 ovarian = system: OVCAR-8 ovarian
KM20L2 colon = system: KM20L2 colon
A549 NSCLC = system: A549 NSCLC
NCI-H23 lung = system: NCI-H23 lung
OVCAR-3 ovarian = system: OVCAR-3 ovarian
MALME-3M melanoma = system: MALME-3M melanoma
NCI-H226 lung = system: NCI-H226 lung
A498 renal = system: A498 renal
LOX IMVI melanoma = system: LOX IMVI melanoma
ACHN renal = system: ACHN renal
OVCAR-5 ovarian = system: OVCAR-5 ovarian
RXF 393 renal = system: RXF 393 renal
EKVX NSCLC = system: EKVX NSCLC
DLD-1 colon = system: DLD-1 colon
HOP-62 NSCLC = system: HOP-62 NSCLC
SR leukemia = system: SR leukemia
MOLT-4 leukemia = system: MOLT-4 leukemia
OVCAR-4 ovarian = system: OVCAR-4 ovarian
SNB-19 CNS = system: SNB-19 CNS
HCC-2998 colon = system: HCC-2998 colon
K-562 leukemia = system: K-562 leukemia
XF 498 CNS = system: XF 498 CNS
SF-295 CNS = system: SF-295 CNS
HOP-18 NSCLC = system: HOP-18 NSCLC
LXFL 529 NSCLC = system: LXFL 529 NSCLC
HCT-116 colon = system: HCT-116 colon
M14 melanoma = system: M14 melanoma
786-0 renal = system: 786-0 renal
UACC-257 melanoma = system: UACC-257 melanoma
U251 CNS = system: U251 CNS
HCT-15 colon = system: HCT-15 colon
KM12 colon = system: KM12 colon
CAKI-1 renal = system: CAKI-1 renal
NCI-H460 lung = system: NCI-H460 lung
UACC-62 melanoma = system: UACC-62 melanoma
HOP-92 NSCLC = system: HOP-92 NSCLC
RPMI-8226 leukemia = system: RPMI-8226 leukemia
DMS 114 small cell lung = system: DMS 114 small cell lung
M19-MEL melanoma = system: M19-MEL melanoma
SN12C renal = system: SN12C renal
NCI-H522 lung = system: NCI-H522 lung
SK-MEL-28 melanoma = system: SK-MEL-28 melanoma
SNB-75 CNS = system: SNB-75 CNS
SNB-78 CNS = system: SNB-78 CNS
SF-539 CNS = system: SF-539 CNS
SF-268 CNS = system: SF-268 CNS
TK-10 renal = system: TK-10 renal
SW-620 colon = system: SW-620 colon
COLO 205 colon = system: COLO 205 colon
IGROV1 ovarian = system: IGROV1 ovarian
RXF-631 renal = system: RXF-631 renal
SK-MEL-2 melanoma = system: SK-MEL-2 melanoma

## Cc1cc(C)nc(NS(=O)(=O)c2ccc(Nc3c4ccccc4nc4c(C(=O)Nc5ccc(S(=O)(=O)Nc6cc(C)on6)cc5)cccc34)cc2)n1
UO-31 renal
  TGI: 63.2 µM
HL-60(TB) leukemia
  TGI: 61.4 µM
HT29 colon
  TGI: 35.5 µM
SK-MEL-5 melanoma
  TGI: 36.3 µM
SK-OV-3 ovarian
  TGI: 61.7 µM
DMS 273 small cell lung
  TGI: 55.8 µM
OVCAR-8 ovarian
  TGI: 39.3 µM
KM20L2 colon
  TGI: 44.4 µM
A549 NSCLC
  TGI: > 100 µM
NCI-H23 lung
  TGI: 51.1 µM
OVCAR-3 ovarian
  TGI: 33.3 µM
MALME-3M melanoma
  TGI: 49 µM
NCI-H226 lung
  TGI: 46.5 µM
A498 renal
  TGI: 51.5 µM
LOX IMVI melanoma
  TGI: 37.1 µM
ACHN renal
  TGI: > 100 µM
OVCAR-5 ovarian
  TGI: 59 µM
RXF 393 renal
  TGI: 38.2 µM
EKVX NSCLC
  TGI: 66.7 µM
DLD-1 colon
  TGI: 78.8 µM
HOP-62 NSCLC
  TGI: 44.2 µM
SR leukemia
  TGI: 81.6 µM
MOLT-4 leukemia
  TGI: 64 µM
OVCAR-4 ovarian
  TGI: 65.5 µM
SNB-19 CNS
  TGI: 52.1 µM
HCC-2998 colon
  TGI: 30.9 µM
K-562 leukemia
  TGI: 80.1 µM
XF 498 CNS
  TGI: 53.5 µM
SF-295 CNS
  TGI: 63.1 µM
HOP-18 NSCLC
  TGI: 53.4 µM
LXFL 529 NSCLC
  TGI: 33 µM
HCT-116 colon
  TGI: 31.2 µM
M14 melanoma
  TGI: 41.7 µM
786-0 renal
  TGI: 34.8 µM
UACC-257 melanoma
  TGI: 66.6 µM
U251 CNS
  TGI: 41.4 µM
HCT-15 colon
  TGI: > 100 µM
KM12 colon
  TGI: 35.7 µM
CAKI-1 renal
  TGI: 46.3 µM
NCI-H460 lung
  TGI: 61 µM
UACC-62 melanoma
  TGI: 34 µM
HOP-92 NSCLC
  TGI: 39.5 µM
RPMI-8226 leukemia
  TGI: 56.3 µM
DMS 114 small cell lung
  TGI: 35.3 µM
M19-MEL melanoma
  TGI: 47.2 µM
SN12C renal
  TGI: 66.5 µM
NCI-H522 lung
  TGI: 29 µM
SK-MEL-28 melanoma
  TGI: 52.3 µM
SNB-75 CNS
  TGI: 69 µM
SNB-78 CNS
  TGI: > 100 µM
SF-539 CNS
  TGI: 34.7 µM
SF-268 CNS
  TGI: 58 µM
TK-10 renal
  TGI: 96 µM
SW-620 colon
  TGI: 51.4 µM
COLO 205 colon
  TGI: 34.1 µM
IGROV1 ovarian
  TGI: 77.1 µM

## CCOC(=O)NC(=O)c1cn(CCOCCOC(=O)NCCCCCCNC(=O)OCCOCCn2cc(C(=O)NC(=O)OCC)c(=O)[nH]c2=O)c(=O)[nH]c1=O
UO-31 renal
  TGI: > 100 µM
HL-60(TB) leukemia
  TGI: > 100 µM
HT29 colon
  TGI: > 100 µM
SK-MEL-5 melanoma
  TGI: > 100 µM
SK-OV-3 ovarian
  TGI: > 100 µM
RXF-631 renal
  TGI: > 100 µM
DMS 273 small cell lung
  TGI: > 100 µM
OVCAR-8 ovarian
  TGI: > 100 µM
KM20L2 colon
  TGI: > 100 µM
A549 NSCLC
  TGI: > 100 µM
NCI-H23 lung
  TGI: > 100 µM
OVCAR-3 ovarian
  TGI: > 100 µM
MALME-3M melanoma
  TGI: > 100 µM
A498 renal
  TGI: > 100 µM
LOX IMVI melanoma
  TGI: > 100 µM
ACHN renal
  TGI: > 100 µM
OVCAR-5 ovarian
  TGI: > 100 µM
RXF 393 renal
  TGI: > 100 µM
EKVX NSCLC
  TGI: > 100 µM
DLD-1 colon
  TGI: > 100 µM
HOP-62 NSCLC
  TGI: > 100 µM
SR leukemia
  TGI: > 100 µM
OVCAR-4 ovarian
  TGI: > 100 µM
SNB-19 CNS
  TGI: > 100 µM
HCC-2998 colon
  TGI: > 100 µM
K-562 leukemia
  TGI: > 100 µM
SF-295 CNS
  TGI: > 100 µM
HOP-18 NSCLC
  TGI: > 100 µM
LXFL 529 NSCLC
  TGI: > 100 µM
HCT-116 colon
  TGI: > 100 µM
M14 melanoma
  TGI: > 100 µM
786-0 renal
  TGI: > 100 µM
UACC-257 melanoma
  TGI: > 100 µM
U251 CNS
  TGI: > 100 µM
HCT-15 colon
  TGI: > 100 µM
KM12 colon
  TGI: > 100 µM
NCI-H460 lung
  TGI: > 100 µM
UACC-62 melanoma
  TGI: > 100 µM
HOP-92 NSCLC
  TGI: > 100 µM
SK-MEL-2 melanoma
  TGI: > 100 µM
RPMI-8226 leukemia
  TGI: > 100 µM
DMS 114 small cell lung
  TGI: > 100 µM
M19-MEL melanoma
  TGI: > 100 µM
SN12C renal
  TGI: > 100 µM
NCI-H522 lung
  TGI: > 100 µM
SK-MEL-28 melanoma
  TGI: > 100 µM
SNB-75 CNS
  TGI: > 100 µM
SNB-78 CNS
  TGI: > 100 µM
SF-539 CNS
  TGI: > 100 µM
SF-268 CNS
  TGI: > 100 µM
TK-10 renal
  TGI: > 100 µM
SW-620 colon
  TGI: > 100 µM
COLO 205 colon
  TGI: > 100 µM
IGROV1 ovarian
  TGI: > 100 µM
